Source: ChEMBL document CHEMBL1136584, “Synthesis and preliminary biological evaluation of 6-O-[11C]-[(methoxymethyl)benzyl]guanines, new potential PET breast cancer imaging agents for the DNA repair protein AGT” (Bioorg Med Chem Lett, 2003)

Tests used:
[1] = molecular target: T1, Methylated-DNA--protein-cysteine methyltransferase (Homo sapiens) (UniProt P16455); assay: In vitro inhibitory activity of compound against AGT (O6-alkylguanine-DNA alkyltransferase) at a concentration of 50 uM using breast cancer MCF cells, expressed as Fmol O6-MeG removed/mg of protein; type: cell-based
T1 sequence (whole entry): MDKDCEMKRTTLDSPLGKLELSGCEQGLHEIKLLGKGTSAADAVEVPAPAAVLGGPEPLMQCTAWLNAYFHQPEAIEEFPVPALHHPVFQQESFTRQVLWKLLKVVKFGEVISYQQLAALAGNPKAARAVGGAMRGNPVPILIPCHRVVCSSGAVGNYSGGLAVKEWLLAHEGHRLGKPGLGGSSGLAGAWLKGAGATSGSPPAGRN

[2] = molecular target: T1, Methylated-DNA--protein-cysteine methyltransferase (Homo sapiens); assay: In vitro inhibitory activity of compound against AGT (O6-alkylguanine-DNA alkyltransferase) at a concentration of 10 uM using breast cancer MCF cells, expressed as Fmol O6-MeG removed/mg of protein; type: cell-based
[3] = molecular target: T1, Methylated-DNA--protein-cysteine methyltransferase (Homo sapiens); assay: In vitro inhibitory activity of compound against AGT (O6-alkylguanine-DNA alkyltransferase) at a concentration of 0.1 uM using breast cancer MCF cells, expressed as Fmol O6-MeG removed/mg of protein; type: cell-based
[4] = molecular target: T1, Methylated-DNA--protein-cysteine methyltransferase (Homo sapiens); assay: In vitro inhibitory activity of compound against AGT (O6-alkylguanine-DNA alkyltransferase) at a concentration of 1 uM using breast cancer MCF cells, expressed as Fmol O6-MeG removed/mg of protein; type: cell-based
[5] = molecular target: T1, Methylated-DNA--protein-cysteine methyltransferase (Homo sapiens); settings: MCF7; 1 uM
Description: In vitro inhibitory activity of compound against AGT (O6-alkylguanine-DNA alkyltransferase) at a concentration of 1 uM using breast cancer MCF-7 cells, expressed as Fmol O6-MeG removed/mg of protein

[6] = molecular target: T1, Methylated-DNA--protein-cysteine methyltransferase (Homo sapiens); settings: MCF7; 0.1 uM
Description: In vitro inhibitory activity of compound against AGT (O6-alkylguanine-DNA alkyltransferase) at a concentration of 0.1 uM using breast cancer MCF-7 cells, expressed as Fmol O6-MeG removed/mg of protein

[7] = molecular target: T1, Methylated-DNA--protein-cysteine methyltransferase (Homo sapiens); settings: MCF7; 50 uM
Description: In vitro inhibitory activity of compound against AGT (O6-alkylguanine-DNA alkyltransferase) at a concentration of 50 uM using breast cancer MCF-7 cells, expressed as Fmol O6-MeG removed/mg of protein

[8] = molecular target: T1, Methylated-DNA--protein-cysteine methyltransferase (Homo sapiens); settings: MCF7; 10 uM
Description: In vitro inhibitory activity of compound against AGT (O6-alkylguanine-DNA alkyltransferase) at a concentration of 10 uM using breast cancer MCF-7 cells, expressed as Fmol O6-MeG removed/mg of protein

With `COCc1ccc(COc2[nH]c(N)nc3ncnc2-3)cc1` the Activity ((fM of O6-MeG removed) (mg of protein)-1) [1] was 58, the Activity ((fM of O6-MeG removed) (mg of protein)-1) [2] was 35 and the Activity ((fM of O6-MeG removed) (mg of protein)-1) [3] was 457. For the same compound, the Activity ((fM of O6-MeG removed) (mg of protein)-1) [4] was 292.

`COCc1cccc(COc2[nH]c(N)nc3ncnc2-3)c1` showed an Activity ((fM of O6-MeG removed) (mg of protein)-1) [1] of 15, an Activity ((fM of O6-MeG removed) (mg of protein)-1) [2] of 21 and an Activity ((fM of O6-MeG removed) (mg of protein)-1) [3] of 1640. It also gave an Activity ((fM of O6-MeG removed) (mg of protein)-1) [4] of 1140.

`Nc1nc(OCc2ccccc2)c2nc[nH]c2n1` gave an Activity ((fM of O6-MeG removed) (mg of protein)-1) [5] of 164, an Activity ((fM of O6-MeG removed) (mg of protein)-1) [6] of 2390 and an Activity ((fM of O6-MeG removed) (mg of protein)-1) [7] of 19. The Activity ((fM of O6-MeG removed) (mg of protein)-1) [8] was 50.

`COCc1ccccc1COc1[nH]c(N)nc2ncnc1-2` gave an Activity ((fM of O6-MeG removed) (mg of protein)-1) [1] of 660, an Activity ((fM of O6-MeG removed) (mg of protein)-1) [2] of 2490 and an Activity ((fM of O6-MeG removed) (mg of protein)-1) [3] of 2340. It also gave an Activity ((fM of O6-MeG removed) (mg of protein)-1) [4] of 2300.
